{"source": "patent US20230181552A1", "about": "“EXTERNAL PREPARATION OF IMIDACLOPRID, PREPARATION METHOD AND USE THEREOF” (Qingdao Bolin Biological Technology Co., Ltd., priority 2021, published 2023)", "origin": "cited, not measured here", "key": {"[1]": {"system": "nicotinic receptor sites of mammals", "details": "background statement"}, "[2]": {"system": "postsynaptic nicotinic acetylcholine receptors in the central nervous system of insects", "details": "background statement"}, "[3]": {"system": "rabbits, mice and rats", "details": "sublethal doses, systemic use"}}, "data": [{"smiles": "O=[N+]([O-])NC1=NCCN1Cc1ccc(Cl)nc1", "note": "[Imidacloprid, imidacloprid]", "values": [{"measurement": "affinity to nicotinic receptor sites of mammals", "setting": "[1]", "result": "weak affinity"}, {"measurement": "affinity for postsynaptic nicotinic acetylcholine receptors in the central nervous system of insects", "setting": "[2]", "result": "high affinity"}, {"measurement": "pharmacological activity in mammals", "setting": "[3]", "result": "little pharmacological activity"}]}]}
